Patent publication US20240173341A1, “COMPOSITION FOR AMELIORATING OR TREATING DEMENTIA CONTAINING 2'-FUCOSYLLACTOSE” (Advanced Protein Technologies Corp., priority 2022, published 2024)

Assays:
wild-type mice = test: Water maze test, normal group; type: in vivo, mouse; settings: oral 8 weeks, compared to distilled water (vehicle), FIGS. 2 and 3
Procedure: The distilled water (DW)-administered group was used as a negative control (vehicle), and a donepezil-administered group was used as a positive control. The term “dementia group” refers to 5×FAD mice administered distilled water and the term “normal group” refers to wild-type mice administered distilled water. 2′-FL was orally administered at various concentrations to wild-type and 5×FAD mouse groups for 8 weeks and then a water maze test was performed. Specifically, a circular water tank with a diameter of 150 cm and a height of 60 cm was filled to a height of 30 cm with water, and an escape platform was installed in one area of the four quadrants of the tank. During the training period, the escape platform was placed 1 cm below the surface of the water in the tank so that it was invisible, training was repeated at the identical water entry point three times a day, and recording was performed using a video tracking system (SMART v3.0 panlab SL). When the experimental animal reached the escape platform within 60 seconds, it was allowed to stay on the escape platform for 15 seconds, and when it could not find the escape platform, it was guided to the escape platform by hand and trained to stay on the escape platform alone for 20 seconds. […] At this time, the time (sec) to first reach the location of the escape platform and the number of target crossings were recorded (FIG. 1). […]

TNF-α = test: Neuroinflammatory marker analysis (ELISA), TNF-α; type: in vivo, mouse; settings: 2′-FL-administered dementia group compared to the dementia group; FIG. 12
Procedure: (§1) The experimental animals used herein were 24-week-old 5×FAD (Aβ plaques) Alzheimer's models. The experimental animals were raised at a temperature of 22±3° C., at a relative humidity of 30±10%, and at an illuminance of 150 to 300 Lux for a lighting period of 12 hours (08:00˜20:00), and five or less animals were raised in each polycarbonate cage. The distilled water (DW)-administered group was used as a negative control (vehicle), and a donepezil-administered group was used as a positive control. The term “dementia group” refers to 5×FAD mice administered distilled water, and the term “normal group” refers to wild-type mice administered distilled water. The concentrations of neuroinflammatory cytokines, TNF-α and IL-6 in mouse brain tissue homogenates were analyzed using enzyme-linked immunosorbent assay (ELISA).

[1] = system: phosphorylated tau protein; test: Tau protein hyperphosphorylation analysis (IHC); type: in vivo, mouse
Procedure: The experimental animals used herein were 24-week-old 5×FAD (Aβ plaques) Alzheimer's models. The experimental animals were raised at a temperature of 22±3° C., at a relative humidity of 30±10%, and at an illuminance of 150 to 300 Lux for a lighting period of 12 hours (08:00˜20:00), and five or less animals were raised in each polycarbonate cage. The distilled water (DW)-administered group was used as a negative control (vehicle), and a donepezil-administered group was used as a positive control. The term “dementia group” refers to 5×FAD mice administered distilled water, and the term “normal group” refers to wild-type mice administered distilled water. Hyperphosphorylation (p-tau) of tau protein was analyzed through image observation based on immunohistochemistry (IHC) using an antibody that detects tau protein expressed in mouse brain tissue and phosphorylated tau protein.

[2] = system: amyloid beta accumulated in mouse brain tissue; test: Amyloid beta accumulation analysis (thioflavin staining of cleared brain tissue); type: in vivo; settings: for Ab number / Ab number/volume: oral, 5×FAD mice
Procedure: (§2) The experimental animals used herein were 24-week-old 5×FAD (Aβ plaques) Alzheimer's models. The experimental animals were raised at a temperature of 22±3° C., at a relative humidity of 30±10%, and at an illuminance of 150 to 300 Lux for a lighting period of 12 hours (08:00˜20:00), and five or less animals were raised in each polycarbonate cage.
The term “dementia group” refers to 5×FAD mice administered distilled water, and the term “normal group” refers to wild-type mice administered distilled water.
For the amyloid beta accumulated in mouse brain tissue, brain tissue over 1 mm in size was made transparent using a tissue transparency technique, stained with thioflavin, imaged in three dimensions, and then quantified as plaques for each brain region using the Imaris program.
In addition, three 1 mm-thick brain tissues were collected from each group, the volumes thereof were measured, and the total number of accumulated amyloid beta was measured.

[3] = system: 5×FAD (Aβ plaques) Alzheimer's models; test: Water maze test, dementia group; type: in vivo, mouse
Procedure: The experimental animals used herein were 24-week-old 5×FAD (Aβ plaques) Alzheimer's models. The experimental animals were raised at a temperature of 22±3° C., at a relative humidity of 30±10%, and at an illuminance of 150 to 300 Lux for a lighting period of 12 hours (08:00˜20:00), and five or less animals were raised in each polycarbonate cage. The distilled water (DW)-administered group was used as a negative control (vehicle), and a donepezil-administered group was used as a positive control. The term “dementia group” refers to 5×FAD mice administered distilled water and the term “normal group” refers to wild-type mice administered distilled water. 2′-FL was orally administered at various concentrations to wild-type and 5×FAD mouse groups for 8 weeks and then a water maze test was performed. Specifically, a circular water tank with a diameter of 150 cm and a height of 60 cm was filled to a height of 30 cm with water, and an escape platform was installed in one area of the four quadrants of the tank. During the training period, the escape platform was placed 1 cm below the surface of the water in the tank so that it was invisible, training was repeated at the identical water entry point three times a day, and recording was performed using a video tracking system (SMART v3.0 panlab SL). When the experimental animal reached the escape platform within 60 seconds, it was allowed to stay on the escape platform for 15 seconds, and when it could not find the escape platform, it was guided to the escape platform by hand and trained to stay on the escape platform alone for 20 seconds. In the probe test on the 6th day, the escape platform was removed and the experimental animals were allowed to swim freely for 60 seconds. At this time, the time (sec) to first reach the location of the escape platform and the number of target crossings were recorded (FIG. 1). FIG. 1 is a schematic diagram illustrating the water maze test method.

[4] = system: 5×FAD (Aβ plaques) Alzheimer's models; test: Y-maze test; type: in vivo, mouse; settings: 5×FAD mice, oral 8 weeks, all concentrations, compared to the dementia group; n=8~12, FIG. 6
Procedure: as §2
The distilled water (DW)-administered group was used as a negative control (vehicle), and a donepezil-administered group was used as a positive control. The term “dementia group” refers to 5×FAD mice administered distilled water and the term “normal group” refers to wild-type mice administered distilled water. […]
Specifically, the arms of the Y-maze were randomly designated as A, B, and C, the mouse was placed on one arm and allowed to move freely for 5 minutes, and then the arm where the mouse entered was recorded. This record was limited to cases where the tail thereof completely entered, and cases where it entered the same arm again were also recorded (FIG. 5). […]
The case where the mouse entered three different arms one after another was given one point (actual alteration). Alteration behavior is defined as a case where the mouse enters all of three arms in turn and the result was calculated in accordance with Equation 1 below (maximum change: total number of entries—2).

IL-6 = test: Neuroinflammatory marker analysis (ELISA), IL-6; type: in vivo, mouse; settings: 2′-FL-administered dementia group compared to the dementia group; FIG. 13
Procedure: as §1

[5] = 2′-FL 300 group, 1st brain tissue
[6] = 2′-FL 300 group, 2nd brain tissue
[7] = 2′-FL 300 group, 3rd brain tissue
[8] = 2′-FL 600 group, 1st brain tissue
[9] = 2′-FL 600 group, 2nd brain tissue
[10] = 2′-FL 600 group, 3rd brain tissue
[11] = 2′-FL 1200 group, 1st brain tissue
[12] = 2′-FL 1200 group, 2nd brain tissue
[13] = 2′-FL 1200 group, 3rd brain tissue

Substance: 2′-fucosyllactose [2′-FL]
- time to arrive at the escape platform during the water maze training period (wild-type mice): reduced the time to arrive at the escape platform
- concentration of TNF-α (TNF-α): significantly decreased
- inhibition of tau protein hyperphosphorylation ([1]; brain cortex of dementia group, n=8~12, FIG. 10): no significant effect
- inhibition of tau protein hyperphosphorylation ([1]; brain hippocampus of dementia group, n=8~12, FIG. 11): no significant effect
- Ab number [2, 5]: 23900
- Ab number/volume [2, 5]: 8628
- Ab number [2, 6]: 26900
- Ab number/volume [2, 6]: 9642
- Ab number [2, 7]: 42000
- Ab number/volume [2, 7]: 12174
- Ab number ([2]; 2′-FL 300 group, Avr. of three brain tissues): 30933
- Ab number/volume ([2]; 2′-FL 300 group, Avr. of three brain tissues, *p ≤ 0.05 vs. Vehicle): 10148*
- Ab number [2, 8]: 32000
- Ab number/volume [2, 8]: 11722
- Ab number [2, 9]: 38400
- Ab number/volume [2, 9]: 11852
- Ab number [2, 10]: 20800
- Ab number/volume [2, 10]: 5762
- Ab number ([2]; 2′-FL 600 group, Avr. of three brain tissues): 30400
- Ab number/volume ([2]; 2′-FL 600 group, Avr. of three brain tissues, *p ≤ 0.05 vs. Vehicle): 9778*
- Ab number [2, 11]: 34300
- Ab number/volume [2, 11]: 10719
- Ab number [2, 12]: 31900
- Ab number/volume [2, 12]: 7800
- Ab number [2, 13]: 37000
- Ab number/volume [2, 13]: 12092
- Ab number ([2]; 2′-FL 1200 group, Avr. of three brain tissues): 34400
- Ab number/volume ([2]; 2′-FL 1200 group, Avr. of three brain tissues, *p ≤ 0.05 vs. Vehicle): 10203*
- amyloid beta accumulation ([2]; brain cortex of dementia group, n=8-12, FIG. 7): decrease in amyloid beta accumulation
- amyloid beta accumulation ([2]; brain hippocampus of dementia group, n=8-12, FIG. 8): decrease in amyloid beta accumulation
- accumulation of amyloid beta throughout the brain ([2]; dementia group, three 1 mm-thick brain tissues per group, Table 1, FIG. 9): significantly inhibited
- arrival route to the escape platform ([3]; 5th day of water maze training, 2′-FL-administered dementia group compared to the dementia group, FIG. 4): simplified
- spatial memory through training ([3]; all concentrations, 2′-FL-administered dementia group compared to the dementia group): significantly improved spatial memory
- time to arrive at the escape platform during the water maze training period ([3]; dementia group (5×FAD mice), oral 8 weeks, compared to distilled water (vehicle), FIGS. 2 and 3): reduced the time to arrive at the escape platform
- spontaneous alteration (SA) [4]: significantly increased SA
- concentration of IL-6 (IL-6): significantly decreased
